Consider 2 molecules from patent US20200197430A1, “Combination Therapy” (NuCana plc, priority 2017, published 2020).

Data set [1] can be described thus: PRO-001 (ProGem1) first-in-human phase I study, pharmacokinetics. The following applies: compared with gemcitabine. The class given is in vivo. The text has this:
PRO-001 (aka ProGem1) was a first-in-human (FIH), phase I, open label, two stage study to investigate the safety, tolerability, clinical efficacy, pharmacokinetics (PK) and pharmacodynamics (PD) of NUC-1031 given in two parallel dosing schedules in subjects with advanced solid malignancies (EudraCT Number: 2011-005232-26). Subjects had the following tumour types at study entry: colorectal cancer (7 subjects), unknown primary (3), ovarian cancer (13), breast cancer (4), pancreatic cancer (9), cholangiocarcinoma (7), uterine or endometrial cancer (3), cervix cancer (2), lung cancer (6), mesothelioma (3) and thymus cancer (1). The study confirmed NUC-1031′s anti-tumour activity in patients with advanced progressive cancers, who have exhausted all standard therapeutic options, many of whom were resistant or refractory to prior nucleoside analogue therapy, including gemcitabine.

Data set [2] has as its system platinum sensitive recurrent ovarian cancer. The following applies: cited from earlier work.

Each structure is given as a SMILES string.

As for `C[C@H](NP(=O)(OC[C@H]1O[C@@H](n2ccc(N)nc2=O)C(F)(F)[C@@H]1O)Oc1ccccc1)C(=O)OCc1ccccc1` (stereo partly drawn) [NUC-1031, 2′-Deoxy-2′,2′-difluoro-D-cytidine-5′-O-[phenyl (benzoxy-L-alaninyl)] phosphate], the “levels of the potentially toxic metabolite dFdU released” value in data set [1] was “lower levels”.

For `N.N.O=C([O-])C1(C(=O)[O-])CCC1.[Pt+2]` [carboplatin], in data set [2], the response rate was 30.9%. Also, in data set [2] (median follow-up of 17 months), the “median PFS” value is 5.8 months.
